Tested on: KRAS-mutant PDC complex spheroid viability
Experiment: Anticancer human tumor 186277-243-T-J2-PDC patient-derived colon adenocarcinoma cell line growth inhibition [KRAS2]
Conditions: for IC50: curve of first compound; for viability, T/C: stronger effect = lower value
Outline: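 Combination screen of spheroid viability in tumor-cell co-cultures with endothelial (HUVEC) and mesenchymal stem cell stroma. Each agent was tested in half-log dilutions, topping at clinical Cmax or at 10 microM without a known Cmax.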

[1] = second compound 0.1 µM, first compound 0.0316 µM
[2] = second compound 0.1 µM, first compound 0.1 µM
[3] = second compound 0.316 µM, first compound 0.0316 µM
[4] = second compound 0.316 µM, first compound 0.1 µM
[5] = second compound 1 µM, first compound 0.0316 µM
[6] = second compound 1 µM, first compound 0.1 µM
[7] = second compound 3.16 µM, first compound 0.0316 µM
[8] = second compound 3.16 µM, first compound 0.1 µM
[9] = second compound 10 µM, first compound 0.0316 µM
[10] = second compound 10 µM, first compound 0.1 µM
[11] = second compound 0.1 µM, first compound 0.316 µM
[12] = second compound 0.1 µM, first compound 1 µM
[13] = second compound 0.1 µM, first compound 3.16 µM
[14] = second compound 0.1 µM, first compound 10 µM
[15] = second compound 0.316 µM, first compound 0.316 µM
[16] = second compound 0.316 µM, first compound 1 µM
[17] = second compound 0.316 µM, first compound 3.16 µM
[18] = second compound 0.316 µM, first compound 10 µM
[19] = second compound 1 µM, first compound 0.316 µM
[20] = second compound 1 µM, first compound 1 µM
[21] = second compound 1 µM, first compound 3.16 µM
[22] = second compound 1 µM, first compound 10 µM
[23] = second compound 3.16 µM, first compound 0.316 µM
[24] = second compound 3.16 µM, first compound 1 µM
[25] = second compound 3.16 µM, first compound 3.16 µM
[26] = second compound 3.16 µM, first compound 10 µM
[27] = second compound 10 µM, first compound 0.316 µM
[28] = second compound 10 µM, first compound 1 µM
[29] = second compound 10 µM, first compound 3.16 µM
[30] = second compound 10 µM, first compound 10 µM
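Wherever viability, T/C is given: viability read after seven days of compound exposure; 100% = DMSO vehicle-treated spheroids so lower means less viable.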

SMILES | IC50 (second compound 0.1 µM) | IC50 (second compound 0.316 µM) | IC50 (second compound 1 µM) | IC50 (second compound 3.16 µM) | IC50 (second compound 10 µM) | viability, T/C [1] | viability, T/C [2] | viability, T/C [3] | viability, T/C [4] | viability, T/C [5] | viability, T/C [6] | viability, T/C [7] | viability, T/C [8] | viability, T/C [9] | viability, T/C [10] | viability, T/C [11] | viability, T/C [12] | viability, T/C [13] | viability, T/C [14] | viability, T/C [15] | also measured
CC(C)n1nc(-c2ccc3oc(N)nc3c2)c2c(N)ncnc21 + CC1OCC2(CCN(c3cnc(Sc4ccnc(N)c4Cl)c(N)n3)CC2)C1N | 0.0119 µM | 0.0127 µM | 0.0087 µM | 0.00498 µM | 0.00126 µM | 30% | 16.1% | 30.6% | 15.3% | 25.3% | 12.9% | 22.6% | 7.43% | 13.8% | 5.7% | – | – | – | – | – | viability, T/C (second compound 0.1 µM, first compound 0.000316 µM): 107%; viability, T/C (second compound 0.1 µM, first compound 0.001 µM): 101%; viability, T/C (second compound 0.1 µM, first compound 0.00316 µM): 85.8%; viability, T/C (second compound 0.1 µM, first compound 0.01 µM): 52.1%; viability, T/C (second compound 0.316 µM, first compound 0.000316 µM): 113%; viability, T/C (second compound 0.316 µM, first compound 0.001 µM): 100%; viability, T/C (second compound 0.316 µM, first compound 0.00316 µM): 76.8%; viability, T/C (second compound 0.316 µM, first compound 0.01 µM): 57%; viability, T/C (second compound 1 µM, first compound 0.000316 µM): 103%; viability, T/C (second compound 1 µM, first compound 0.001 µM): 89.7%; viability, T/C (second compound 1 µM, first compound 0.00316 µM): 67.5%; viability, T/C (second compound 1 µM, first compound 0.01 µM): 49.9%; viability, T/C (second compound 3.16 µM, first compound 0.000316 µM): 83.8%; viability, T/C (second compound 3.16 µM, first compound 0.001 µM): 73.4%; viability, T/C (second compound 3.16 µM, first compound 0.00316 µM): 55.9%; viability, T/C (second compound 3.16 µM, first compound 0.01 µM): 39.5%; viability, T/C (second compound 10 µM, first compound 0.000316 µM): 57.4%; viability, T/C (second compound 10 µM, first compound 0.001 µM): 58.8%; viability, T/C (second compound 10 µM, first compound 0.00316 µM): 33.7%; viability, T/C (second compound 10 µM, first compound 0.01 µM): 25.3%
CC1(C)CCC(CN2CCN(c3ccc(C(=O)NS(=O)(=O)c4ccc(NCC5CCOCC5)c([N+](=O)[O-])c4)c(Oc4cnc5[nH]ccc5c4)c3)CC2)=C(c2ccc(Cl)cc2)C1 + CC1OCC2(CCN(c3cnc(Sc4ccnc(N)c4Cl)c(N)n3)CC2)C1N | 2.27 µM | 2.35 µM | 2.13 µM | 1.75 µM | 1.55 µM | 103% | 115% | 128% | 136% | 140% | 115% | 98.9% | 112% | 80.1% | 82.7% | 127% | 120% | 23.1% | 0.76% | 130% | viability, T/C [16]: 130%; viability, T/C [17]: 22.1%; viability, T/C [18]: 0.38%; viability, T/C [19]: 113%; viability, T/C [20]: 116%; viability, T/C [21]: 16%; viability, T/C [22]: 0.34%; viability, T/C [23]: 100%; viability, T/C [24]: 93.8%; viability, T/C [25]: 3.38%; viability, T/C [26]: 0.22%; viability, T/C [27]: 87.7%; viability, T/C [28]: 79%; viability, T/C [29]: 2.4%; viability, T/C [30]: 0.21%
COc1cc(Nc2ncc3c(n2)-c2ccc(Cl)cc2C(c2c(F)cccc2OC)=NC3)ccc1C(=O)O + CC1OCC2(CCN(c3cnc(Sc4ccnc(N)c4Cl)c(N)n3)CC2)C1N | < 0.0316 µM | < 0.0316 µM | < 0.0316 µM | < 0.0316 µM | < 0.0316 µM | 36% | 32.9% | 30.3% | 29.7% | 22.2% | 22.8% | 17.1% | 18% | 13.7% | 13.9% | 33% | 35.2% | 38.8% | 33.8% | 24.5% | viability, T/C [16]: 27.9%; viability, T/C [17]: 30.4%; viability, T/C [18]: 27.5%; viability, T/C [19]: 21.1%; viability, T/C [20]: 22.1%; viability, T/C [21]: 22.6%; viability, T/C [22]: 21.7%; viability, T/C [23]: 15.8%; viability, T/C [24]: 15.7%; viability, T/C [25]: 16.1%; viability, T/C [26]: 16.2%; viability, T/C [27]: 11.8%; viability, T/C [28]: 11.4%; viability, T/C [29]: 12.1%; viability, T/C [30]: 11.9%
COc1cc2nccc(Oc3ccc(NC(=O)C4(C(=O)Nc5ccc(F)cc5)CC4)cc3)c2cc1OC + CC1OCC2(CCN(c3cnc(Sc4ccnc(N)c4Cl)c(N)n3)CC2)C1N | 1.98 µM | 2.03 µM | 1.71 µM | 0.821 µM | 0.284 µM | 106% | 111% | 115% | 98.8% | 104% | 112% | 94% | 92.8% | 63.5% | 60.7% | 105% | 103% | 13.7% | 8.67% | 109% | viability, T/C [16]: 107%; viability, T/C [17]: 14.6%; viability, T/C [18]: 9.03%; viability, T/C [19]: 104%; viability, T/C [20]: 85.2%; viability, T/C [21]: 9.37%; viability, T/C [22]: 6.62%; viability, T/C [23]: 83.7%; viability, T/C [24]: 43.6%; viability, T/C [25]: 5.99%; viability, T/C [26]: 4.64%; viability, T/C [27]: 48.5%; viability, T/C [28]: 21.8%; viability, T/C [29]: 3.73%; viability, T/C [30]: 3.26%

— PubChem BioAssay AID1963875 (Molecular Pharmacology Branch, DTP, NCI, 2024)
